Tested on: patients with ALK-positive NSCLC
Test: Phase 1 safety assessment (TRAEs by CTCAE 4.03, DLT, MTD, RP2D)
Assay type: in vivo, human
Experimental: In the dose-escalation phase, the dose was escalated sequentially from a low to a high level with a 3 + 3 dose-escalation scheme based on the modified Fibonacci method. The starting dose for conteltinib was 50 mg orally quaque die (QD). Dose escalation proceeded to the next six cohorts of 100 mg, 200 mg, 300 mg, 450 mg, 600 mg, and 800 mg QD. For each dose, there was a PK lead-in phase where a single dose was given 7 days before cycle 1 day 1. Then, each dose was taken continuously in a 28-day cycle. The first cycle was for dose-limiting toxicity (DLT) investigation. When one of three patients experienced a DLT in a dose cohort, three additional patients were enrolled in the same dose cohort to assess the dose level in a total of six patients. All patients received conteltinib until disease progression, unacceptable toxicity, or withdrawal of consent. Patients received follow-up safety assessments for 30 days (±7 days) after the last conteltinib dose.
In the dose-expansion phase, each dose was taken continuously in a 28-day cycle. At the end of each cycle, a safety evaluation was conducted. If patients met the criteria to enter the next cycle, treatment with conteltinib was continued for subsequent cycles. All patients received conteltinib until disease progression, unacceptable toxicity, or withdrawal of consent. Patients received follow-up safety assessments for 30 days (±7 days) after the last dose of conteltinib.
The safety of conteltinib was assessed in safety set (SS) which was based on the National Cancer Institute Common Terminology Criteria for Adverse Events (CTCAE) version 4.03, laboratory tests, vital signs, ECG, and clinical observations. […] Adverse events (AEs) were judged to be treatment-related or not by investigators.
DLTs were AEs occurring in the first cycle of treatment (28 days) that were attributed to conteltinib, and the criteria were grade 4 neutropenia lasting ≥ 7 days, febrile neutropenia, grade 3 thrombocytopenia, grade 3 non-hematologic toxicity, and any conteltinib-related toxicity resulting in treatment delay > 2 weeks or discontinuation of conteltinib treatment at the assigned dose level. Besides, grade 3 nausea, vomiting, or diarrhea for ≥ 3 days or grade 4 nausea, vomiting, or diarrhea of any duration was considered as a DLT. The MTD was defined as the dose of conteltinib that would be closest to but not higher than a 33% probability of a DLT.

SMILES: COc1cc(N2CCC(N3CCN(C)CC3)CC2)ccc1Nc1nc2c(c(Nc3ccccc3S(=O)(=O)NC(C)C)n1)CCN2 [Conteltinib]
- TRAE Hypercholesterolemia (450 mg QD (n=14), Grade 1–2): 1 (7.1) n (%)
- TRAE Hyperglycemia (450 mg QD (n=14), Grade 1–2): 1 (7.1) n (%)
- TRAE Hypertriglyceridemia (450 mg QD (n=14), Grade 1–2): 2 (14.3) n (%)
- TRAE Hyperuricemia (450 mg QD (n=14), Grade 1–2): 3 (21.4) n (%)
- TRAE Hypoalbuminemia (450 mg QD (n=14), Grade 1–2): 2 (14.3) n (%)
- TRAE Nausea (450 mg QD (n=14), Grade 1–2): 6 (42.9) n (%)
- TRAE Proteinuria (450 mg QD (n=14), Grade 1–2): 1 (7.1) n (%)
- TRAE Serum creatinine elevated (450 mg QD (n=14), Grade 1–2): 10 (71.4) n (%)
- TRAE Vomiting (450 mg QD (n=14), Grade 1–2): 6 (42.9) n (%)
- TRAE Weight loss (450 mg QD (n=14), Grade 1–2): 3 (21.4) n (%)
- TRAE γ-GGT elevated (450 mg QD (n=14), Grade 1–2): 3 (21.4) n (%)
- Patients with any TRAE (450 mg QD (n=14), Grade ≥ 3): 3 (21.4) n (%)
- TRAE ALT elevated (450 mg QD (n=14), Grade ≥ 3): 0 (0.0) n (%)
- TRAE AST elevated (450 mg QD (n=14), Grade ≥ 3): 0 (0.0) n (%)
- TRAE Abdominal pain (450 mg QD (n=14), Grade ≥ 3): 0 (0.0) n (%)
- TRAE Abdominal pain upper (450 mg QD (n=14), Grade ≥ 3): 0 (0.0) n (%)
- TRAE Appetite decreased (450 mg QD (n=14), Grade ≥ 3): 0 (0.0) n (%)
- TRAE Conjugated bilirubin elevated (450 mg QD (n=14), Grade ≥ 3): 0 (0.0) n (%)
- TRAE Diarrhea (450 mg QD (n=14), Grade ≥ 3): 0 (0.0) n (%)
- TRAE Hypercholesterolemia (450 mg QD (n=14), Grade ≥ 3): 0 (0.0) n (%)
- TRAE Hyperglycemia (450 mg QD (n=14), Grade ≥ 3): 0 (0.0) n (%)
- TRAE Hypertriglyceridemia (450 mg QD (n=14), Grade ≥ 3): 0 (0.0) n (%)
- TRAE Hyperuricemia (450 mg QD (n=14), Grade ≥ 3): 0 (0.0) n (%)
- TRAE Hypoalbuminemia (450 mg QD (n=14), Grade ≥ 3): 0 (0.0) n (%)
- TRAE Nausea (450 mg QD (n=14), Grade ≥ 3): 0 (0.0) n (%)
- TRAE Proteinuria (450 mg QD (n=14), Grade ≥ 3): 0 (0.0) n (%)
- TRAE Serum creatinine elevated (450 mg QD (n=14), Grade ≥ 3): 0 (0.0) n (%)
- TRAE Vomiting (450 mg QD (n=14), Grade ≥ 3): 0 (0.0) n (%)
- TRAE Weight loss (450 mg QD (n=14), Grade ≥ 3): 0 (0.0) n (%)
- TRAE γ-GGT elevated (450 mg QD (n=14), Grade ≥ 3): 3 (21.4) n (%)
- Patients with any TRAE (600 mg QD (n=18), Grade 1–2): 18 (100) n (%)
- TRAE ALT elevated (600 mg QD (n=18), Grade 1–2): 7 (38.9) n (%)
- TRAE AST elevated (600 mg QD (n=18), Grade 1–2): 8 (44.4) n (%)
- TRAE Abdominal pain (600 mg QD (n=18), Grade 1–2): 7 (38.9) n (%)
- TRAE Abdominal pain upper (600 mg QD (n=18), Grade 1–2): 2 (11.1) n (%)
- TRAE Appetite decreased (600 mg QD (n=18), Grade 1–2): 7 (38.9) n (%)
- TRAE Conjugated bilirubin elevated (600 mg QD (n=18), Grade 1–2): 2 (11.1) n (%)
- TRAE Diarrhea (600 mg QD (n=18), Grade 1–2): 16 (88.9) n (%)
- TRAE Hypercholesterolemia (600 mg QD (n=18), Grade 1–2): 4 (22.2) n (%)
- TRAE Hyperglycemia (600 mg QD (n=18), Grade 1–2): 6 (33.3) n (%)
- TRAE Hypertriglyceridemia (600 mg QD (n=18), Grade 1–2): 8 (44.4) n (%)
- TRAE Hyperuricemia (600 mg QD (n=18), Grade 1–2): 10 (55.6) n (%)
- TRAE Hypoalbuminemia (600 mg QD (n=18), Grade 1–2): 3 (16.7) n (%)
- TRAE Nausea (600 mg QD (n=18), Grade 1–2): 9 (50.0) n (%)
- TRAE Proteinuria (600 mg QD (n=18), Grade 1–2): 8 (44.4) n (%)
- TRAE Serum creatinine elevated (600 mg QD (n=18), Grade 1–2): 8 (44.4) n (%)
- TRAE Vomiting (600 mg QD (n=18), Grade 1–2): 11 (61.1) n (%)
- TRAE Weight loss (600 mg QD (n=18), Grade 1–2): 8 (44.4) n (%)
- TRAE γ-GGT elevated (600 mg QD (n=18), Grade 1–2): 8 (44.4) n (%)
- Patients with any TRAE (600 mg QD (n=18), Grade ≥ 3): 5 (27.8) n (%)
- TRAE ALT elevated (600 mg QD (n=18), Grade ≥ 3): 0 (0.0) n (%)
- TRAE AST elevated (600 mg QD (n=18), Grade ≥ 3): 0 (0.0) n (%)
- TRAE Abdominal pain (600 mg QD (n=18), Grade ≥ 3): 0 (0.0) n (%)
- TRAE Abdominal pain upper (600 mg QD (n=18), Grade ≥ 3): 0 (0.0) n (%)
- TRAE Appetite decreased (600 mg QD (n=18), Grade ≥ 3): 0 (0.0) n (%)
- TRAE Conjugated bilirubin elevated (600 mg QD (n=18), Grade ≥ 3): 0 (0.0) n (%)
- TRAE Diarrhea (600 mg QD (n=18), Grade ≥ 3): 2 (11.1) n (%)
- TRAE Hypercholesterolemia (600 mg QD (n=18), Grade ≥ 3): 0 (0.0) n (%)
- TRAE Hyperglycemia (600 mg QD (n=18), Grade ≥ 3): 0 (0.0) n (%)
- TRAE Hypertriglyceridemia (600 mg QD (n=18), Grade ≥ 3): 0 (0.0) n (%)
- TRAE Hyperuricemia (600 mg QD (n=18), Grade ≥ 3): 0 (0.0) n (%)
- TRAE Hypoalbuminemia (600 mg QD (n=18), Grade ≥ 3): 0 (0.0) n (%)
- TRAE Nausea (600 mg QD (n=18), Grade ≥ 3): 0 (0.0) n (%)
- TRAE Proteinuria (600 mg QD (n=18), Grade ≥ 3): 0 (0.0) n (%)
- TRAE Serum creatinine elevated (600 mg QD (n=18), Grade ≥ 3): 1 (5.6) n (%)
- TRAE Vomiting (600 mg QD (n=18), Grade ≥ 3): 0 (0.0) n (%)
- TRAE Weight loss (600 mg QD (n=18), Grade ≥ 3): 0 (0.0) n (%)
- TRAE γ-GGT elevated (600 mg QD (n=18), Grade ≥ 3): 1 (5.6) n (%)
- DLT events (600 mg QD, cycle 1, dose-escalation phase, grade 3 serum creatinine elevated): One
- Patients with any TRAE (800 mg QD (n=4), Grade 1–2): 3 (75.0) n (%)
- TRAE ALT elevated (800 mg QD (n=4), Grade 1–2): 0 (0.0) n (%)
- TRAE AST elevated (800 mg QD (n=4), Grade 1–2): 1 (25.0) n (%)
- TRAE Abdominal pain (800 mg QD (n=4), Grade 1–2): 3 (75.0) n (%)
- TRAE Abdominal pain upper (800 mg QD (n=4), Grade 1–2): 0 (0.0) n (%)
- TRAE Appetite decreased (800 mg QD (n=4), Grade 1–2): 1 (25.0) n (%)
- TRAE Conjugated bilirubin elevated (800 mg QD (n=4), Grade 1–2): 0 (0.0) n (%)
- TRAE Diarrhea (800 mg QD (n=4), Grade 1–2): 3 (75.0) n (%)
- TRAE Hypercholesterolemia (800 mg QD (n=4), Grade 1–2): 1 (25.0) n (%)
- TRAE Hyperglycemia (800 mg QD (n=4), Grade 1–2): 1 (25.0) n (%)
- TRAE Hypertriglyceridemia (800 mg QD (n=4), Grade 1–2): 2 (50.0) n (%)
- TRAE Hyperuricemia (800 mg QD (n=4), Grade 1–2): 3 (75.0) n (%)
- TRAE Hypoalbuminemia (800 mg QD (n=4), Grade 1–2): 1 (25.0) n (%)
- TRAE Nausea (800 mg QD (n=4), Grade 1–2): 1 (25.0) n (%)
- TRAE Proteinuria (800 mg QD (n=4), Grade 1–2): 2 (50.0) n (%)
- TRAE Serum creatinine elevated (800 mg QD (n=4), Grade 1–2): 2 (50.0) n (%)
- TRAE Vomiting (800 mg QD (n=4), Grade 1–2): 2 (50.0) n (%)
- TRAE Weight loss (800 mg QD (n=4), Grade 1–2): 2 (50.0) n (%)
- TRAE γ-GGT elevated (800 mg QD (n=4), Grade 1–2): 2 (50.0) n (%)
- Patients with any TRAE (800 mg QD (n=4), Grade ≥ 3): 0 (0.0) n (%)
- TRAE ALT elevated (800 mg QD (n=4), Grade ≥ 3): 0 (0.0) n (%)
- TRAE AST elevated (800 mg QD (n=4), Grade ≥ 3): 0 (0.0) n (%)
- TRAE Abdominal pain (800 mg QD (n=4), Grade ≥ 3): 0 (0.0) n (%)
- TRAE Abdominal pain upper (800 mg QD (n=4), Grade ≥ 3): 0 (0.0) n (%)
- TRAE Appetite decreased (800 mg QD (n=4), Grade ≥ 3): 0 (0.0) n (%)
- TRAE Conjugated bilirubin elevated (800 mg QD (n=4), Grade ≥ 3): 0 (0.0) n (%)
- TRAE Diarrhea (800 mg QD (n=4), Grade ≥ 3): 0 (0.0) n (%)
- TRAE Hypercholesterolemia (800 mg QD (n=4), Grade ≥ 3): 0 (0.0) n (%)
- TRAE Hyperglycemia (800 mg QD (n=4), Grade ≥ 3): 0 (0.0) n (%)

From publication PMC9694544, “Conteltinib (CT-707) in patients with advanced ALK-positive non-small cell lung cancer: a multicenter, open-label, first-in-human phase 1 study” (BMC Medicine, 2022)
